From patent US20220175761A1, “BI-LIGAND DRUG CONJUGATE AND USE THEREOF” (COHERENT BIOPHARMA (SUZHOU), LIMITED, priority 2019, published 2022)
Square brackets hold non-standard residues; d marks the D form. Peptide text beside a SMILES is read from it. * marks the point of attachment. Dolaproine = CO[C@@H]([C@@H]1CCCN1)[C@@H](C)C(=O)O; Dil = CC[C@H](C)[C@H](NC)[C@@H](CC(=O)O)OC; X1 = C[C@@H](N*)[C@@H](O)c1ccccc1; NMeV = CN[C@H](C(=O)O)C(C)C

What was measured:
[1] = test system: KB, T-47D, NCI-H460, CALU-3, HuH-7, and LNCaP tumor cell lines; assay: Inhibition of tumor cell expansion, CCK8 (CB-20BK); type: cell-based, human
Protocol: Cell lines: KB human oral epidermoid carcinoma cells, T-47D human breast cancer cells, NCI-H460 human lung cancer cells, CALU-3 human lung adenocarcinoma cells, HuH-7 human liver cancer cells and LNCaP human prostate cancer cells
The cells were prepared in advance, digested with trypsin, collected and counted; with a complete cell culture medium, KB cells were diluted to 2.5×10^4 cells/ml, T-47D cells were diluted to 1.3×10^4 cells/ml, NCI-H460 cells were diluted to 3.5×10^4 cells/ml, CALU-3 cells were diluted to 4.0×10^4 cells/ml, HuH-7 cells were diluted to 3.0×10^4 cells/ml, and LNCaP cells were diluted to 8.0×10^4 cells/ml; 100 μl of the diluted cell solution was added to each well of 96-well plates; and negative control and blank control wells were set on each plate. The 96-well plates added with the cells were placed in an incubator at 37° C., 5% CO2 for culturing overnight.
The samples were diluted with a culture medium to desired concentrations (see Table 8). […]
To each well, 15 μl (10% of the liquid volume in a well) of a color developing solution from CCK-8 was added; the plates were incubated at 37° C. for an appropriate time (try to keep the OD value in the range of 1.0-2.0); the covers of the 96-well plates were removed, and the plates were read at 450 nm on a microplate reader (Molecular Devices Spectra MAX Plus). […]

BR1283 = assay: Tumor growth inhibition in HuPrime xenograft breast cancer PDX model; type: in vivo, BALB/c-nude mice; conditions: 3 mg/kg, tail vein
Protocol: (§1) Experimental scheme: The tumor tissue mass were prepared and subcutaneously inoculated into the anterior right flank of BALB/c-nude mice. When the tumor volume expanded to 80-160 mm^3, a randomized grouping was performed, and a model control group and administration groups were set. The mice were administrated from the first day of grouping, wherein the administration dose was adjusted according to the latest weight measurement. The mice were administrated via tail vein injection at an administration volume of 10 μl/g and an administration dosage of 3 mg/kg. After grouping and administration, the effects of tumor growth and treatment on normal behaviors of animals, specifically including the activity of experimental animals, food intake and drinking status, weight gain or loss status, and other abnormal conditions in eyes, hair, etc., were monitored. After grouping and administration, the weight of mice was measured twice a week to calculate the rate of weight change; at the same time, the long diameter and short diameter of the tumor were measured with a vernier caliper, and the tumor volume, relative tumor proliferation rate, tumor volume inhibition rate and other indicators were calculated. The formula of tumor volume is TV=0.5 a×b^2, wherein a is the long diameter of a tumor and b is the short diameter of a tumor.

BR0438 = assay: as above; type: in vivo, BALB/c-nude mice; conditions: 3 mg/kg, tail vein
Protocol: as §1

[2] = test system: NCI-H226 (human lung cancer cells); assay: Inhibition of cell line proliferation, CCK8; type: cell-based; conditions: NCI-H226, 68-72 hours, CCK8

`CC[C@H](C)[C@@H]([C@@H](CC(=O)N1CCC[C@H]1[C@H](OC)[C@@H](C)C(=O)N[C@H](C)[C@@H](O)c1ccccc1)OC)N(C)C(=O)[C@@H](NC(=O)[C@H](C(C)C)N(C)C(=O)OCc1ccc(NC(=O)C(CCCNC(N)=O)NC(=O)[C@@H](NC(=O)CCCCCN2C(=O)CC(SC[C@H](NC(=O)[C@H](CCCCN)NC(=O)[C@H](CC(=O)O)NC(=O)[C@H](CC(=O)O)NC(=O)Cc3ccc(CNC(=O)NCCCC[C@H](NC(=O)N[C@@H](CCC(=O)O)C(=O)O)C(=O)O)cc3)C(=O)N[C@@H](CCCCNC(=O)CC[C@H](NC(=O)c3ccc(NCc4cnc5[nH]c(N)nc(=O)c5n4)cc3)C(=O)O)C(N)=O)C2=O)C(C)C)cc1)C(C)C` (some centres unmarked) [CB-20BK] was tested, and the “inhibitory effect on growth and expansion of tumor cell lines” value ([1]; 72 hours, CCK-8) was “has an inhibitory effect”, the “IC50 compared between cell lines” value ([1]; T-47D, KB, LNCaP, HuH-7 and CALU-3 versus NCI-H460) was “significantly lower” and the TGI (BR1283) was 96.49%. For the same compound, the TGI (BR0438) was 70.74%.
`CC[C@H](C)[C@@H]([C@@H](CC(=O)N1CCC[C@H]1[C@H](OC)[C@@H](C)C(=O)N[C@H](C)[C@@H](O)c1ccccc1)OC)N(C)C(=O)[C@@H](NC(=O)[C@@H](NC)C(C)C)C(C)C` [MMAE, monomethyl auristatin E] (H-[NMeV]V[Dil][Dolaproine]-X1) was tested, and the IC50 [2] was 6 nM.
